In the RepoRT retention time repository (doi:10.1016/j.foodchem.2015.11.070):

Assay: Thermo Scientific Hypersil GOLD aQ, 100 × 2.1 mm, 1.9 µm, 30 °C, 0.3 mL/min, estimated dead time 0.73 min; A: water + 0.01% formic acid + 4 mM ammonium formate; B: methanol + 0.01% formic acid + 4 mM ammonium formate; gradient (min/%B) 0/5 1/5 8/100 12/100
Details: stereoisomer not certain

Compound	LC retention time [min]
CCOP(=S)(OCC)Oc1cc(C)nc(C(C)C)n1	10.2
C=CCC1=C(C)C(OC(=O)C2C(C=C(C)C)C2(C)C)CC1=O (configuration not stated)	10.8
COP(=S)(OC)SCN1C(=O)c2ccccc2C1=O	9.39
Cc1nnc(-c2ccccc2)c(=O)n1N	7.23
CSC(C)=NOC(=O)N(C)SN(C)C(=O)ON=C(C)SC	8.88
CON=C(C(=O)OC)c1ccccc1COc1ccccc1C	10.1
COCCOc1ccccc1S(=O)(=O)NC(=O)Nc1nc(OC)nc(OC)n1	8.14
Cc1cc(C)c(C2=C(OC(=O)CC(C)(C)C)C3(CCCC3)OC2=O)c(C)c1	10.9
COP(=O)(NC(C)=O)SC (configuration not stated)	1.58
Cc1cc(C)nc(Nc2ccccc2)n1	9.6
CCC(C)c1cc([N+](=O)[O-])cc([N+](=O)[O-])c1OC(=O)OC(C)C (configuration not stated)	9.22
COC(=O)Nc1cccc(OC(=O)Nc2cccc(C)c2)c1	9.23
CNC(=O)ON=C(CS(C)=O)C(C)(C)C (configuration not stated)	6.31
CNC(=O)ON=C(CS(C)(=O)=O)C(C)(C)C	6.92
CC1(C)C(C(=O)OC(C#N)c2cccc(Oc3ccccc3)c2)C1(C)C (configuration not stated)	11
CCOP(=S)(OCC)Oc1cc(C)nc(N(CC)CC)n1	10.7
CCOc1ccc2c(c1)C(C)=CC(C)(C)N2	9.07
C=CC=CCC1=C(C)C(OC(=O)C2C(C=C(C)C)C2(C)C)CC1=O (configuration not stated)	11
CNC(=O)ON=C(C)C(C)SC (configuration not stated)	7.89
CC(Cc1ccc(C(C)(C)C)cc1)CN1CCCCC1 (configuration not stated)	9.29
Cc1ccc(N=CN(C)C=Nc2ccc(C)cc2C)c(C)c1	9.09
CC(C)N1C(=O)c2ccccc2NS1(=O)=O	8.26

Compound	LC retention time [min]
CCOC(=O)N(C)C(=O)CSP(=S)(OCC)OCC	9.84
COP(=S)(OC)SCC(=O)N(C)C=O	8.06
CC#Cc1cc(C)nc(Nc2ccccc2)n1	10
CC(C)OC(=O)Nc1ccccc1	8.61
COC(=O)c1ccccc1CS(=O)(=O)NC(=O)Nc1nc(OC)cc(OC)n1	9.3
C=CC=CCC1=C(C)C(OC(=O)C2C(C=C(C)C(=O)OC)C2(C)C)CC1=O (configuration not stated)	10.3
CC(=O)OCC12CC(OC(=O)CC(C)C)C(C)=CC1OC1C(O)C(O)C2(C)C12CO2 (configuration not stated)	8.35
COP(N)(=S)Oc1ccccc1C(=O)OC(C)C (configuration not stated)	9.04
COCC(=O)N(c1c(C)cccc1C)C(C)C(=O)OC (configuration not stated)	9.04
CNC(=O)Oc1cccc2c1OC(C)(C)C2	8.41
CON(C(=O)c1cc(C)oc1C)C1CCCCC1	10.2
CC(COc1ccc(Oc2ccccc2)cc1)Oc1ccccn1 (configuration not stated)	10.9
CSc1nnc(C(C)(C)C)c(=O)n1N	8.41
Cc1cc(=O)[nH]o1	5.67
Cc1ccc2nc3sc(=O)sc3nc2c1	9.19
CCCN(CCC)C(=O)SCC	10.1
CCS(=O)(=O)CCSP(=O)(OC)OC	6.13
CCOP(=S)(OCC)SCCS(=O)CC (configuration not stated)	8.89
CCOc1cc(OP(=S)(OC)OC)nc(CC)n1	10.2
CCOP(=S)(Oc1ccc(C#N)cc1)c1ccccc1 (configuration not stated)	8.72
C#CCOS(=O)OC1CCCCC1Oc1ccc(C(C)(C)C)cc1 (configuration not stated)	10.9
CNC(=O)CSP(=S)(OC)OC	7.18

Compound	LC retention time [min]
CC1=CC2OC3C(O)CC(C)(C34CO4)C2(CO)C(O)C1=O (configuration not stated)	9.63
COC(=O)c1ccccc1S(=O)(=O)NC(=O)Nc1nc(C)nc(OC)n1	8.43
CCCN(CC)CC1COC2(CCC(C(C)(C)C)CC2)O1 (configuration not stated)	9.58
CCCC(=NOCC)C1=C(O)CC(C2CCCSC2)CC1=O (configuration not stated)	10.5
CCC(C)Nc1c([N+](=O)[O-])cc(C(C)(C)C)cc1[N+](=O)[O-] (configuration not stated)	9.23
CCN(CC)c1nc(C)cc(OP(=S)(OC)OC)n1	10.3
CCOP(=O)(NC(C)C)Oc1ccc(S(C)(=O)=O)c(C)c1 (configuration not stated)	8.51
CCOP(=S)(OCC)SCn1nnc2ccccc2c1=O	9.92
CCOP(=S)(OCC)Oc1ccc([N+](=O)[O-])cc1	9.21
COc1cc2c(c3oc(=O)c4c(c13)CCOC4=O)C1C=COC1O2 (configuration not stated)	8
CCOc1ccc(C(C)(C)COCc2cccc(Oc3ccccc3)c2)cc1	11.7
CCNc1nc(NC(C)(C)C)nc(SC)n1	9.65
CNC(=O)ON=C(C)C(C)S(C)(=O)=O (configuration not stated)	7.37
CC(C)c1cc(Oc2ccccc2)cc(C(C)C)c1NC(=S)NC(C)(C)C	11
CNC(=O)Oc1cc(C)cc(C(C)C)c1	9.52
COCC(=O)N(c1c(C)cccc1C)N1CCOC1=O	8.04
CCS(=O)(=O)c1cccnc1S(=O)(=O)NC(=O)Nc1nc(OC)cc(OC)n1	8.71
CCSCCSP(=O)(OC)OC	8.74
COP(=S)(NC(C)C)Oc1ccccc1C(=O)OC(C)C (configuration not stated)	8.98
COC(=O)NC(=S)Nc1ccccc1NC(=S)NC(=O)OC	8.31
CCOP(=S)(OCC)Oc1ccc(=O)n(-c2ccccc2)n1	9.71
CNC(=O)ON=C(C)SC	6.05

Compound	LC retention time [min]
CNC(=O)ON=CC(C)(C)S(C)(=O)=O	7.37
CCOC(=O)Nc1cccc(OC(=O)Nc2ccccc2)c1	9.23
c1ccc(Nc2ccccc2)cc1	6.3
CCC(CC)Nc1c([N+](=O)[O-])cc(C)c(C)c1[N+](=O)[O-]	11.1
CCS(=O)(=O)Cc1ccccc1OC(=O)NC	7
CCCCc1c(C)nc(NCC)nc1OS(=O)(=O)N(C)C	9.87
CCOP(=S)(OCC)Oc1ccc(S(C)=O)cc1 (configuration not stated)	9.1
CNC(=O)Oc1cc(C)c(SC)c(C)c1	8.76
CCOP(=O)(NC(C)C)Oc1ccc(S(C)=O)c(C)c1 (configuration not stated)	8.44
CC1(c2ccc(Oc3ccccc3)cc2)OC(=O)N(Nc2ccccc2)C1=O (configuration not stated)	10.2
CCCN(CCC)C(=O)SCc1ccccc1	10.6
COP(=O)(OC)Oc1ccc([N+](=O)[O-])cc1	8.12
CNC(=O)Oc1cccc2c1OC(C)(C)O2	8.4
COc1cc2c(c3oc(=O)c4c(c13)CCC4=O)C1C=COC1O2 (configuration not stated)	8.44
CNC(=O)CSP(=O)(OC)OC	1.79
CC(C)N(Cc1ccccc1)C(=O)C(C)(C)C	9.96
CCNc1nc(NCC)nc(SC)n1	8.62
CN(C)c1nc(=O)n(C2CCCCC2)c(=O)n1C	8.61
CSc1nc(NC(C)C)nc(NC(C)C)n1	9.65
CNC(=O)Oc1cccc2c1OC(C)(C)C2O (configuration not stated)	7.11
CCC1CCCC(OC2CCC(N(C)C)C(C)O2)C(C)C(=O)C2=CC3C(C=CC4CC(OC5OC(C)C(OC)C(OC)C5OC)CC43)C2CC(=O)O1 (configuration not stated)	10.3
